Structures can show the parent of a compound that is named as a salt. Where two headings read alike, the source gives them in different places.
How the values were obtained:
PameOBP2 = PameOBP2 (Periplaneta americana, UniProt B6E9U8); experiment: Competitive fluorescence binding assay (1-NPN displacement), recombinant PameOBP2
Description: (§1) The PameOBPs were expressed by using Escherichia coli expression system. To generate properly folded protein, the signal peptide predicted by SignalIP 4.1 [18] was removed. The two PameOBPs were amplified by gene special primers (S1 Table) with the cDNA as the template. The purified PCR products were ligated into expression vector pGEX-4T-1 using In-Fusion® HD Cloning Kit (Clontech, Mountain View, CA) according to the manufacturer’s instructions. The recombinant plasmid was transformed into E. coli BL21 (DE3) cells, and then expression and purification was performed according to a previously reported protocol. Recombinant proteins in the supernatant were purified by an affinity chromatography column GSTrap FF (GE Healthcare, Piscataway, NJ, USA). The GST tags were cleaved from recombinant proteins using 400 μL of thrombin (1U/μL) while loaded on GSTrap FF column at 25°C for 10 h and allowed 12 h. After that, the recombinant proteins were eluted with PBS buffer. Finally, the eluted proteins were desalted using HiTrap Desalting (GE Healthcare), lyophilized, and stored at −80°C until use.
(§2) Emission fluorescence spectra were measured on a Hitachi F-4500 fluorescence spectrophotometer following our previous studies. Firstly, dissociation constants of the PameOBPs for N-phenyl-1-naphtylamine (1-NPN) were calculated to determine the suitability of 1-NPN as a fluorescence reporter. […] The binding data were analyzed following our previous studies.

PameOBP1 = PameOBP1 (Periplaneta americana, UniProt B6E9U7); experiment: Competitive fluorescence binding assay (1-NPN displacement), recombinant PameOBP1
PameOBP1, sequence (B6E9U7 entry or part of it): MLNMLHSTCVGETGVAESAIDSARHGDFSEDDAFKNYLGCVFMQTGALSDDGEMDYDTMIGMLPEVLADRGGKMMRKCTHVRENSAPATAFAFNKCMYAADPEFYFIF
Description: as §1, §2

PameOBP3 = PameOBP3 (Periplaneta americana, UniProt B6E9U9); experiment: Competitive fluorescence binding assay (1-NPN displacement), recombinant PameOBP3
PameOBP3, sequence (B6E9U9 entry or part of it): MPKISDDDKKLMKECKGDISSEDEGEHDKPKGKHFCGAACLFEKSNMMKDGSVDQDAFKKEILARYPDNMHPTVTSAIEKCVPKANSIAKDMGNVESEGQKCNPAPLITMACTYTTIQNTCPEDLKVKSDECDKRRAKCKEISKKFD
Description: as §1, §2

[1] = 2 μM 1-NPN as fluorescent reporter, competitor 0.25–2.5 μM or 2–40 μM, read-out: PameOBP2 IC50
[2] = 2 μM 1-NPN as fluorescent reporter, competitor 0.25–2.5 μM or 2–40 μM, read-out: PameOBP2 Ki
[3] = 2 μM 1-NPN as fluorescent reporter, competitor 0.25–2.5 μM or 2–40 μM, read-out: PameOBP1 IC50
[4] = 2 μM 1-NPN as fluorescent reporter, competitor 0.25–2.5 μM or 2–40 μM, read-out: PameOBP1 Ki
[5] = 2 μM 1-NPN as fluorescent reporter, competitor 0.25–2.5 μM or 2–40 μM, read-out: PameOBP3 Ki
[6] = PameOBP2 Ki, 2 μM 1-NPN as fluorescent reporter, competitor 0.25–2.5 μM or 2–40 μM
[7] = PameOBP1 Ki, 2 μM 1-NPN as fluorescent reporter, competitor 0.25–2.5 μM or 2–40 μM

PameOBP2, sequence (B6E9U8 entry or part of it): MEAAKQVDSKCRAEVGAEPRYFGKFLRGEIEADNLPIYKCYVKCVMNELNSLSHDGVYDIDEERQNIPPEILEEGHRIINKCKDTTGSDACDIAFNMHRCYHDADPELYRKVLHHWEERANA

Compound | Ki (PameOBP2; [2]) | Ki (PameOBP1; [4]) | Ki (PameOBP3; [5]) | Ki (PameOBP2; [6]) | Ki (PameOBP1; [7]) | Ki (PameOBP3) | further results
C=CC(C)(O)CCC=C(C)CCC=C(C)C (mixture of isomers) [Nerolidol] | 26.6 ± 2.79 µM | > 40 µM | – | – | – | – | IC50 (PameOBP2; [1]): 32.9 ± 4.21 µM; IC50 (PameOBP1; [3]): > 40 µM
CCCCCCO [1-hexanol] | > 40 µM | > 40 µM | > 40 µM | – | – | – | –
CCCCCCCCCCCC(C)=O [2-Tridecanone] | 1.23 ± 0.08 µM | 1.85 ± 0.17 µM | – | – | – | – | IC50 (PameOBP2; [1]): 1.52 ± 0.16 µM; IC50 (PameOBP1; [3]): 2.02 ± 0.16 µM
CCCCCC(C)O (centres unmarked) [2-heptanol] | > 40 µM | > 40 µM | > 40 µM | – | – | – | –
CCCCCC(C)=O [2-heptanone] | > 40 µM | > 40 µM | > 40 µM | – | – | – | –
CCCCC(C)=O [2-hexanone] | – | – | – | > 40 µM | > 40 µM | > 40 µM | –
CCCCCCCCC(CO)CCCCCC (centres unmarked) [2-hexyl-1-decanol] | > 40 µM | > 40 µM | > 40 µM | – | – | – | –
CCCCCCCCCCCCCC(C)=O [2-pentadecanone] | > 40 µM | > 40 µM | > 40 µM | – | – | – | –
CCCC(O)CC (centres unmarked) [3-hexanol] | > 40 µM | > 40 µM | > 40 µM | – | – | – | –
CCCC(=O)CC [3-hexanone] | > 40 µM | > 40 µM | > 40 µM | – | – | – | –
CC(=O)CCC=C(C)C [6-methyl-5-hepten-2-one] | – | – | – | > 40 µM | > 40 µM | > 40 µM | –
C[C@@H]1CC[C@H]2C(C)(C)[C@H]3C[C@@]12CC[C@@]3(C)O [(+)-cedrol] | – | – | – | > 40 µM | > 40 µM | > 40 µM | –
CC(=O)/C=C/C1=C(C)CCCC1(C)C [Beta- ionone] | – | – | – | 12.2 ± 0.9 µM | 14.4 ± 1.6 µM | – | IC50 (PameOBP2): 15 ± 1.1 µM; IC50 (PameOBP1): 15.8 ± 2.1 µM
CC/C=C\CCO [Cis-3-hexenol] | – | – | – | > 40 µM | > 40 µM | > 40 µM | –
CC/C=C\CCOC(=O)CCCCC [Cis-3-hexenyl hexanoate] | > 40 µM | 22.5 ± 2.6 µM | – | – | – | – | IC50 (PameOBP2; [1]): > 40 µM; IC50 (PameOBP1; [3]): 24.6 ± 1.9 µM
CC(C)=CCC/C(C)=C/CC/C(C)=C/CO [Farnesol] | 0.53 ± 0.06 µM | 0.92 ± 0.06 µM | – | – | – | – | IC50 (PameOBP2; [1]): 0.65 ± 0.07 µM; IC50 (PameOBP1; [3]): 1.01 ± 0.09 µM
CC(=O)OC/C=C(\C)CCC=C(C)C [Geranyl acetate] | 32.6 ± 2.95 µM | > 40 µM | – | – | – | – | IC50 (PameOBP2; [1]): 40 ± 3.16 µM; IC50 (PameOBP1; [3]): > 40 µM
CC(=O)CC/C=C(\C)CCC=C(C)C [Geranylacetone] | 6.97 ± 0.72 µM | > 40 µM | – | – | – | – | IC50 (PameOBP2; [1]): 8.62 ± 0.68 µM; IC50 (PameOBP1; [3]): > 40 µM
CCCCCCCCCCCCCC [Tetradecane] | 0.96 ± 0.1 µM | – | – | – | – | – | IC50 (PameOBP2; [1]): 1.19 ± 0.09 µM; IC50 (PameOBP1; [3]): > 40 µM
C=CC(C)(O)CC/C=C(\C)CCC=C(C)C (stereo not drawn) [Trans-nerolidol] | 12.6 ± 0.98 µM | > 40 µM | – | – | – | – | IC50 (PameOBP2; [1]): 15.6 ± 1.3 µM; IC50 (PameOBP1; [3]): > 40 µM
CC(=O)c1ccccc1 [acetophenone] | > 40 µM | > 40 µM | > 40 µM | – | – | – | –
CC1=CC[C@H](C(C)C)C=C1 [alpha-phellandrene] | – | – | – | > 40 µM | > 40 µM | > 40 µM | –

Compound | Ki (PameOBP2; [2]) | Ki (PameOBP1; [4]) | Ki (PameOBP3; [5]) | Ki (PameOBP2; [6]) | Ki (PameOBP1; [7]) | Ki (PameOBP3) | further results
O=Cc1ccccc1 [benzaldehyde] | – | – | – | > 40 µM | > 40 µM | > 40 µM | –
CC(=O)OCc1ccccc1 [benzyl acetate] | > 40 µM | > 40 µM | > 40 µM | – | – | – | –
OCc1ccccc1 [benzyl alcohol] | – | – | – | > 40 µM | > 40 µM | > 40 µM | –
C=C1CC/C=C(\C)CC[C@@H]2[C@@H]1CC2(C)C [beta-caryophyllene] | – | – | – | > 40 µM | > 40 µM | > 40 µM | –
CCCCOC(C)=O [butyl acetate] | – | – | – | > 40 µM | > 40 µM | > 40 µM | –
CCCCOC=O [butyl formate] | > 40 µM | > 40 µM | > 40 µM | – | – | – | –
C=C1C2CCC(C2)C1(C)C (centres unmarked) [camphene] | > 40 µM | > 40 µM | > 40 µM | – | – | – | –
CCC/C=C\CO [cis-2-hexen-1-ol] | – | – | – | > 40 µM | > 40 µM | > 40 µM | –
CC/C=C\CC=O [cis-3-hexenal] | > 40 µM | > 40 µM | > 40 µM | – | – | – | –
CC/C=C\CCOC(C)=O [cis-3-hexenyl acetate] | > 40 µM | > 40 µM | > 40 µM | – | – | – | –
CC/C=C\CCOC(=O)CCC [cis-3-hexenyl butyrate] | > 40 µM | > 40 µM | > 40 µM | – | – | – | –
CC(C)c1ccccc1 [cumene] | – | – | – | > 40 µM | > 40 µM | > 40 µM | –
CCCCCCCCCC=O [decanal] | > 40 µM | > 40 µM | > 40 µM | – | – | – | –
CCCCCCCCCCCC [dodecane] | > 40 µM | > 40 µM | > 40 µM | – | – | – | –
CCOC(=O)c1ccccc1 [ethyl benzoate] | – | – | – | > 40 µM | > 40 µM | > 40 µM | –
CCCC(=O)OCC [ethyl butyrate] | > 40 µM | > 40 µM | > 40 µM | – | – | – | –
CCOC(=O)CC [ethyl propionate] | > 40 µM | > 40 µM | > 40 µM | – | – | – | –
CCc1ccccc1 [ethylbenzene] | – | – | – | > 40 µM | > 40 µM | > 40 µM | –
CC12CCC(CC1)C(C)(C)O2 [eucalyptol] | > 40 µM | > 40 µM | > 40 µM | – | – | – | –
CC(C)=CCC/C(C)=C/CO [geraniol] | – | – | – | > 40 µM | > 40 µM | > 40 µM | –
CCCCCCCCCCCCCCCCC [heptadecane] | > 40 µM | > 40 µM | > 40 µM | – | – | – | –
CCCCCCCOC(C)=O [heptyl acetate] | > 40 µM | > 40 µM | > 40 µM | – | – | – | –

Compound | Ki (PameOBP2; [2]) | Ki (PameOBP1; [4]) | Ki (PameOBP3; [5]) | Ki (PameOBP2; [6]) | Ki (PameOBP1; [7]) | Ki (PameOBP3) | further results
CCCCCC=O [hexanal] | – | – | – | > 40 µM | > 40 µM | > 40 µM | –
CCCCCCOC(=O)CCC [hexyl butyrate] | > 40 µM | > 40 µM | > 40 µM | – | – | – | –
c1ccc2[nH]ccc2c1 [indole] | – | – | – | > 40 µM | > 40 µM | > 40 µM | –
CC(=O)OCCC(C)C [isoamyl acetate] | > 40 µM | > 40 µM | > 40 µM | – | – | – | –
C=CC(C)(O)CCC=C(C)C (centres unmarked) [linalool] | – | – | – | > 40 µM | > 40 µM | > 40 µM | –
COC(=O)c1ccccc1O [methyl salicylate] | – | – | – | > 40 µM | > 40 µM | > 40 µM | –
c1ccc2ccccc2c1 [naphthalene] | – | – | – | > 40 µM | > 40 µM | > 40 µM | –
CCCCCCCCCOC(C)=O [nonyl acetate] | > 40 µM | > 40 µM | > 40 µM | – | – | – | –
CCCCCCCCCCCCCCCCCC [octadecane] | > 40 µM | > 40 µM | > 40 µM | – | – | – | –
CCCCCCCCOC(C)=O [octyl acetate] | > 40 µM | > 40 µM | > 40 µM | – | – | – | –
CCCCCOC(C)=O [pentyl acetate] | > 40 µM | > 40 µM | > 40 µM | – | – | – | –
OCCc1ccccc1 [phenethyl alcohol] | > 40 µM | > 40 µM | > 40 µM | – | – | – | –
O=CCc1ccccc1 [phenylacetaldehyde] | – | – | – | > 40 µM | > 40 µM | > 40 µM | –
CCC/C=C/C=O [trans-2-hexenal] | – | – | – | > 40 µM | > 40 µM | > 40 µM | –
CCC/C=C/COC(C)=O [trans-2-hexenyl acetate] | > 40 µM | > 40 µM | > 40 µM | – | – | – | –
CCC/C=C/COC(=O)CCC [trans-2-hexenyl butyrate] | > 40 µM | > 40 µM | > 40 µM | – | – | – | –
CCCCCCCCCCCCC [tridecane] | > 40 µM | > 40 µM | > 40 µM | – | – | – | –
CCCCCCCCCCC=O [undecanal] | > 40 µM | > 40 µM | > 40 µM | – | – | – | –
CCCCCCCCCCC [undecane] | > 40 µM | > 40 µM | > 40 µM | – | – | – | –
Farnesene | 0.52 ± 0.03 µM | 1.04 ± 0.1 µM | – | – | – | – | Ki (PameOBP2; 2 μM 1-NPN as fluorescent reporter, competitor 0.25–2.5 μM or 2–40 μM, listed as farnesene, read-out: PameOBP2 Ki): < 2 µM; IC50 (PameOBP2; [1]): 0.64 ± 0.08 µM; Ki (PameOBP1; 2 μM 1-NPN as fluorescent reporter, competitor 0.25–2.5 μM or 2–40 μM, listed as farnesene, read-out: PameOBP1 Ki): < 2 µM; IC50 (PameOBP1; [3]): 1.14 ± 0.12 µM
